We go through 23 molecules from ChEMBL document CHEMBL6153076, “Discovery of novel JQ1 derivatives as dual ferroptosis and apoptosis inducers for the treatment of triple-negative breast cancer” (Eur J Med Chem, 2025).

Calls of active or inactive are those of the source. No cut-off for these calls is given here. Residues, ends and D or L forms follow the SMILES beside them. *: point of attachment. Cbz = O=C(OCc1ccccc1)*; CH2F = FC*

In data set [1] the test system is MDA-MB-231. In words: cells. The conditions noted are these: Homo sapiens, MDA-MB-231, 72 h.
Description: Antiproliferative activity against human MDA-MB-231 cells assessed as inhibition of cell proliferation incubated for 72 hrs by MTT assay
The test system of data set [2] is BT-549. In words: cells. The conditions noted are these: Homo sapiens, BT-549, 72 h.
Description: Antiproliferative activity against human BT-549 cells assessed as inhibition of cell proliferation incubated for 72 hrs by MTT assay
A short description of data set [3]: Cytotoxicity against human MCF-10A cells assessed as inhibition of cell proliferation incubated for 72 hrs by MTT assay. It counts as toxicity, cell-based. For orientation: Tetrazolium dyes change colour on reduction, which living cells bring about.
The nature of data set [4]: Selectivity index, ratio of IC50 for antiproliferative activity against human MCF-10A cells assessed as inhibition of cell proliferation to IC50 for antiproliferative activity against human MDA-MB-231 cells assessed as inhibition of cell proliferation. It counts as toxicity, cell-based. The conditions noted are these: MCF-10A cells and MDA-MB-231 cells, read-out: Ratio IC50.

In data set [5] the test system is MDA-MB-231. Put plainly: Downregulation of NRF2 expression in human MDA-MB-231 cells at 5 uM. In kind it is functional, cell-based.
In data set [6] the test system is MDA-MB-231. In words: Downregulation of HO-1 expression in human MDA-MB-231 cells at 5 uM. It counts as functional, cell-based.
The subject of data set [7] is MDA-MB-231. In words: Induction of apoptosis in human MDA-MB-231 cells assessed as viable cells at 5 uM incubated for 48 hrs by Annexin V/PI staining based flow cytometry analysis (reference value: 97.85%). It counts as functional. The conditions noted are these: read-out: Activity. On the technique in general: In flow cytometry, cells or beads pass a laser one at a time.

Data set [8] deals with MDA-MB-231. In words: Induction of apoptosis in human MDA-MB-231 cells assessed as early apoptotic cells at 5 uM incubated for 48 hrs by Annexin V/PI staining based flow cytometry analysis (reference value: 0.80%). In kind it is functional.
The test system of data set [9] is MDA-MB-231. In words: Induction of apoptosis in human MDA-MB-231 cells assessed as late apoptotic cells at 5 uM incubated for 48 hrs by Annexin V/PI staining based flow cytometry analysis (reference value: 0.14%). In kind it is functional.
For data set [10], the system named is MDA-MB-231. In words: Induction of apoptosis in human MDA-MB-231 cells assessed as necrotic cells at 5 uM incubated for 48 hrs by Annexin V/PI staining based flow cytometry analysis (reference value: 0.03%). It counts as functional.
Data set [11] deals with MDA-MB-231. Put plainly: Induction of cell cycle arrest in human MDA-MB-231 cells assessed as accumulation of cells at G0/G1 phase at 5 uM incubated for 48 hrs by propidium iodide staining flow cytometric analysis (reference value: 64.56 %). It counts as functional.
Data set [12] relates to MDA-MB-231. Put plainly: Induction of cell cycle arrest in human MDA-MB-231 cells assessed as accumulation of cells at G2/M phase at 5 uM incubated for 48 hrs by propidium iodide staining flow cytometric analysis (reference value: 8.69%). It counts as functional.
For data set [13], the system named is MDA-MB-231. In words: Induction of cell cycle arrest in human MDA-MB-231 cells assessed as accumulation of cells at S phase at 5 uM incubated for 48 hrs by propidium iodide staining flow cytometric analysis (reference value: 26.75%). It counts as functional.
Data set [14] deals with MDA-MB-231. Put plainly: Induction of apoptosis in human MDA-MB-231 cells. It counts as functional, cell-based.
Data set [15] concerns MDA-MB-231. Put plainly: Induction of ferroptosis in human MDA-MB-231 cells assessed as cell death in presence of ferrostatin-1. In kind it is functional, cell-based.
In data set [16] the test system is BT-549. In words: Induction of ferroptosis in human BT-549 cells assessed as cell death in presence of ferrostatin-1. In kind it is functional, cell-based.
The target in data set [17] is T1, Phospholipid hydroperoxide glutathione peroxidase GPX4 (Homo sapiens) (UniProt P36969).
T1 sequence (whole entry): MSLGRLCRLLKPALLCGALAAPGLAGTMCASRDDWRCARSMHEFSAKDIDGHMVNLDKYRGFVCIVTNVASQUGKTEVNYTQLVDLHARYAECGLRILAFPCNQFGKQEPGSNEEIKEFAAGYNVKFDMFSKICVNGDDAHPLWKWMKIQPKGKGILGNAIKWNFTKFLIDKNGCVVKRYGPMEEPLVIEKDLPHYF
In words: Inhibition of GPX4 (unknown origin) upto 3 uM incubated for 60 mins in presence of NADPH by absorbance based analysis.

Data set [18] relates to MDA-MB-231. In words: Antiproliferative activity against human MDA-MB-231 cells assessed as reduction in cell proliferation incubated for 72 hrs by MTT assay. In kind it is functional, cell-based.
Data set [19] concerns MDA-MB-231. Put plainly: Induction of ferroptosis in human MDA-MB-231 cells assessed as cell death in presence of Z-VAD-FMK. In kind it is functional, cell-based.
Data set [20] deals with BT-549. In words: Induction of ferroptosis in human BT-549 cells assessed as cell death in presence of Z-VAD-FMK. It counts as functional, cell-based.

The term IC50 denotes the concentration that inhibits the measured activity by half. For `Cc1sc2c(c1C)C(c1ccc(Cl)cc1)=N[C@@H](CC(=O)NCCNC(=O)CCl)c1nnc(C)n1-2`, the values for the IC50 in the data set on MDA-MB-231 [1] and with BT-549 [2] were 3150 nM and 2400 nM, respectively.
The corresponding values for `Cc1sc2c(c1C)C(c1ccc(Cl)cc1)=N[C@@H](CC(=O)Nc1ccc(CNC(=O)CCl)cc1)c1nnc(C)n1-2` are 1460 nM and 1070 nM.
The corresponding values for `Cc1sc2c(c1C)C(c1ccc(Cl)cc1)=N[C@@H](CC(=O)NCc1ccc(NC(=O)CCl)cc1)c1nnc(C)n1-2` are 1500 nM and 1000 nM.
The corresponding values for `Cc1sc2c(c1C)C(c1ccc(Cl)cc1)=N[C@@H](CC(=O)NCCCCCCNC(=O)CCl)c1nnc(C)n1-2` are 5250 nM and 5390 nM.
Regarding `Cc1sc2c(c1C)C(c1ccc(Cl)cc1)=N[C@@H](CC(=O)NCCCCCNC(=O)CCl)c1nnc(C)n1-2`, the values for the concentration for half-maximal inhibition (IC50) in the data set with MDA-MB-231 [1] and in the data set on BT-549 [2] were 5570 nM and 2620 nM, respectively.
For `Cc1sc2c(c1C)C(c1ccc(Cl)cc1)=N[C@@H](CC(=O)OC(C)(C)C)c1nnc(C)n1-2`, the IC50 at 72 h in [3] came out at 46400 nM. Besides, in data set [4], the selectivity ratio worked out at 1.79. Further, the result in the data set on MDA-MB-231 [5] and in the data set on MDA-MB-231 [6] was Active. Besides, the viability at 5 µM in the data set on MDA-MB-231 [7] came out at 66.4%. Besides, the Activity in the data set on MDA-MB-231 [8] was determined as 16.44%; with MDA-MB-231 [9] it was 16.28%; in the data set with MDA-MB-231 [10] it was 0.66%; with MDA-MB-231 [11], 50.48%; with MDA-MB-231 [12], 18.29%; with MDA-MB-231 [13], 31.23%. In addition, the half-maximal inhibitory concentration (IC50) with MDA-MB-231 [1] was 25900 nM; in the data set with BT-549 [2], 20100 nM.
Turning to `Cc1sc2c(c1C)C(c1ccc(Cl)cc1)=N[C@@H](CC(=O)N1CCN(C(=O)CCl)CC1)c1nnc(C)n1-2`, the IC50 at 72 h in [3] stood at 1150 nM. In addition, the selectivity ratio in data set [4] worked out at 1.55. Further, the results for the 50% inhibitory concentration (IC50) in the data set with MDA-MB-231 [1] and in the data set on BT-549 [2] were 740 nM and 720 nM, respectively.
On to `Cc1sc2c(c1C)C(c1ccc(Cl)cc1)=N[C@@H](CC(=O)Nc1ccc(CCNC(=O)CCl)cc1)c1nnc(C)n1-2`, for which the IC50 in the data set on MDA-MB-231 [1] was found to be 13700 nM; in the data set on BT-549 [2] it was 17100 nM.
For `Cc1sc2c(c1C)C(c1ccc(Cl)cc1)=N[C@@H](CC(=O)NCC1CCN(C(=O)CCl)CC1)c1nnc(C)n1-2`, the IC50 at 72 h in data set [3] is 1470 nM. In addition, the selectivity ratio in [4] came to 1.47. Besides, the half-maximal inhibitory concentration (IC50) with MDA-MB-231 [1] worked out at 1000 nM; in the data set on BT-549 [2], 720 nM.
As to `Cc1sc2c(c1C)C(c1ccc(Cl)cc1)=N[C@@H](CC(=O)NCCOCCNC(=O)CCl)c1nnc(C)n1-2`, the IC50 with MDA-MB-231 [1] turned out to be 3880 nM; with BT-549 [2], 3400 nM.
In the same order, the values of `Cc1sc2c(c1C)C(c1ccc(Cl)cc1)=N[C@@H](CC(=O)NCCCNC(=O)CCl)c1nnc(C)n1-2` are 4570 nM and 2270 nM.
In the same order, the values of `Cc1sc2c(c1C)C(c1ccc(Cl)cc1)=N[C@@H](CC(=O)NCCN1CCN(C(=O)CCl)CC1)c1nnc(C)n1-2` are 5940 nM and 6990 nM.
In the case of `Cc1sc2c(c1C)C(c1ccc(Cl)cc1)=N[C@@H](CC(=O)NCc1ccc(CNC(=O)CCl)cc1)c1nnc(C)n1-2`, the half-maximal inhibitory concentration (IC50) in the data set with MDA-MB-231 [1] was 1370 nM; in the data set on BT-549 [2], 950 nM.
Regarding `Cc1sc2c(c1C)C(c1ccc(Cl)cc1)=N[C@@H](CC(=O)NCCOCCOCCNC(=O)CCl)c1nnc(C)n1-2`, the values for the IC50 in the data set with MDA-MB-231 [1] and in the data set with BT-549 [2] were 3030 nM and 1720 nM, respectively.
In the same order, the values of `Cc1sc2c(c1C)C(c1ccc(Cl)cc1)=N[C@@H](CC(=O)Nc1ccc(NC(=O)CCl)cc1)c1nnc(C)n1-2` are 1400 nM and 970 nM.
For the molecule `Cc1sc2c(c1C)C(c1ccc(Cl)cc1)=N[C@@H](CC(=O)Nc1ccc(N3CCN(C(=O)CCl)CC3)cc1)c1nnc(C)n1-2`, the values for the IC50 in the data set on MDA-MB-231 [1] and in the data set with BT-549 [2] were 5310 nM and 7530 nM, respectively.
Regarding `CC(C)[C@H](NC(=O)OCc1ccccc1)C(=O)N[C@@H](C)C(=O)N[C@@H](CC(=O)O)C(=O)CF` (Cbz-Val-Ala-Asp-CH2F), in the data set with MDA-MB-231 [14], the outcome was inactive. Also, the outcome in the data set with MDA-MB-231 [15] and in the data set with BT-549 [16] was Active.
Consider `Cc1sc2c(c1C)C(c1ccc(Cl)cc1)=N[C@@H](CC(=O)NCCCCNC(=O)CCl)c1nnc(C)n1-2`, for which the concentration for half-maximal inhibition (IC50) with MDA-MB-231 [1] stood at 4640 nM; in the data set with BT-549 [2], 5280 nM.
In the same order, the values of `Cc1sc2c(c1C)C(c1ccc(Cl)cc1)=N[C@@H](CC(=O)NCCCN1CCN(C(=O)CCl)CC1)c1nnc(C)n1-2` are 2260 nM and 2460 nM.
As for `CC(=O)N1CCC(NC(=O)C[C@@H]2N=C(c3ccc(Cl)cc3)c3c(sc(C)c3C)-n3c(C)nnc32)CC1`, the inhibition entry in data set [17] was “inactive”. In addition, the outcome in the data set with MDA-MB-231 [18] was Active.
For `Cc1sc2c(c1C)C(c1ccc(Cl)cc1)=N[C@@H](CC(=O)NCCC1CCN(C(=O)CCl)CC1)c1nnc(C)n1-2`, the figures for the 50% inhibitory concentration (IC50) in the data set with MDA-MB-231 [1] and with BT-549 [2] were 3490 nM and 3190 nM, respectively.
`Cc1sc2c(c1C)C(c1ccc(Cl)cc1)=N[C@@H](CC(=O)NCCc1ccc(NC(=O)CCl)cc1)c1nnc(C)n1-2`: the concentration for half-maximal inhibition (IC50) at 72 h in data set [3] is 1540 nM. For the same molecule, the selectivity ratio in data set [4] worked out at 2.26. Moreover, the concentration for half-maximal inhibition (IC50) with MDA-MB-231 [1] worked out at 690 nM; in the data set on BT-549 [2] it was 850 nM.
As to `CCOC(=O)c1ccc(NC2CCCCC2)c(N)c1`, the result in the data set on MDA-MB-231 [19] and in the data set with BT-549 [20] was Active.
